Laboratory results reported in patent US20160287554A1, “Small Molecule Metal-Activated Protein Inhibition” (University of South Florida, priority 2015, published 2016).
Several values for one entry are separate records, joined by “and”; a condition that tells them apart may be missing. Identical values can stand only once.

Biological target: 20S proteasome (Homo sapiens, UniProt P28074)
Assay: 20S proteasome chymotrypsin-like activity assay, cleavage of suc-leu-leu-val-tyr-AMC (fluorescence), with or without copper chloride
Assay type: biochemical
Conditions: for inhibition against the proteasome: one-dose experiments, 10 μM compound in the presence of 1 μM copper
Description: Pro-drug compounds, according to embodiments of the invention, include: 3,4-dihydroxybenzoic acid; galloflavin; 2-{[(carbamoylsulfanyl)acetyl]amino}benzoic acid; 6,7-Dihydroxycoumaranone; 3,6-bis(hydroxymethyl)pyridazin-4(1H)-one; and 4′,5,7-trihydroxyisoflavone, as shown in FIG. 1. These compounds, and analogs thereof, can act individually or can be used in combination. These compounds, and similar compounds, are capable of binding copper ions and facilitating inhibition of the proteasome. These compounds, and similar compounds, are safe and efficacious theranostics and/or drugs to detect and/or treat cancers. These compounds are from the NCI Diversity Set 3. Preliminary identification of these compounds as potential Cu-complexes with the proteasome was conducted using an in silico screening method, according to an embodiment of the invention, for example, with graphic representations of the calculated docking of the pro-drugs of FIG. 1 with copper ion and the proteasome, as shown in FIGS. 2-7. The modeling method indicates the potential of candidates as the pro-drugs, which are tested experimentally to confirm their efficiency using an in vitro experimental assay that tests for inhibition of the chymotrypsin-like activity of the 20S proteasome.
A Beckman Coulter Biomek FX^P Lab Automation Workstation was used for automating the assays. A Perkin Elmer EnVision 2102 multilabel plate reader was used to read the plates by fluorescence measurements. Assays were performed in 384 well black Nunc plates. Each compound (2 μl in DMSO), when tested without copper chloride was added to 28 μl of buffer (50 mM Tris at pH 7.6 and 37° C.), with 20 μM, 10 μl 20S proteasome and 10 μl of suc-leu-leu-val-tyr-AMC as the substrate (purchased from Boston Biochem), and the rate of substrate cleavage by 20S proteasome activity was determined. In the presence of copper, the buffer amount was decreased to 25 μl and 3 μl copper chloride was used for chelation with the compound for testing in the presence of copper. To allow chelation of copper to the compound, the plate was allowed to sit for 40 minutes with gentle shaking. The overall volume per well was held at 50 μL. The compounds and substrate were initially dissolved in 100% DMSO, but the final concentration of DMSO per well plate was reduced to less than 2% following subsequent dilutions. Plates were incubated at 37° C. for 2 hours. For dose response curves, the concentrations of copper chloride and a pro-drug compound, were varied to get optimal activity. The plates were read with 340 nm excitation and 460 nm emission using the plate reader. All liquid transfers to the plates were automated using the Biomek workstation.

[1] = CuCl2 0.01 uM alone (NSC 37408 0 uM)
[2] = CuCl2 0.05 uM alone (NSC 37408 0 uM)
[3] = CuCl2 0.1 uM alone (NSC 37408 0 uM)
[4] = CuCl2 0.5 uM alone (NSC 37408 0 uM)
[5] = CuCl2 1 uM alone (NSC 37408 0 uM)
[6] = CuCl2 10 uM alone (NSC 37408 0 uM)

O=c1cc(CO)[nH]nc1CO [compound 166900, 3,6-bis(hydroxymethyl)pyridazin-4(1H)-one]
inhibition against the proteasome: superior inhibition

[Cl][Cu][Cl] [CuCl2, copper chloride, reference compound]
% Activity [1]: 116.1267% and 79.27% | Average % inhibition [1]: 2.302% | % Activity [2]: 92.35% and 88.54% | Average % inhibition [2]: 9.555% | % Activity [3]: 82.9012% and 74.33% | Average % inhibition [3]: 21.39% | % Activity [4]: 50.13% and 54.8853% | Average % inhibition [4]: 47.49% | % Activity [5]: 65.79% and 56.9% | Average % inhibition [5]: 38.65% | % Activity [6]: 21.19% and 16.25% | Average % inhibition [6]: 81.28% | EC50 (copper chloride alone, dose response (FIG. 11), read-out: EC50 of inhibitory effect on the % activity of the proteasome): 686 nM | inhibitory activity of copper absent the pro-drug (sub-micromolar copper concentration (FIG. 13)): no significant inhibitory activity

O=c1oc2c(cc1O)oc(=O)c1cc(O)c(O)c(O)c12 [compound 107022, galloflavin]
inhibition against the proteasome: superior inhibition

O=C(O)c1ccc(O)c(O)c1 [compound 16631, 3,4-dihydroxybenzoic acid]
inhibition against the proteasome: superior inhibition

NC(=O)SCC(=O)Nc1ccccc1C(=O)O [compound 13345, 2-{[(carbamoylsulfanyl)acetyl]amino}benzoic acid]
inhibition against the proteasome: superior inhibition

O=c1c(-c2ccc(O)cc2)coc2cc(O)cc(O)c12 [compound 36586, 4′,5,7-trihydroxyisoflavone]
inhibition against the proteasome: superior inhibition
